Reference: US20240262819A1, “NOVEL COMPOUNDS HAVING INHIBITORY ACTIVITY AGAINST GLUCOSYLCERAMIDE SYNTHASE OR PHARMACEUTICALLY ACCEPTABLE SALT THEREOF, PROCESSES FOR PREPARING THE SAME, AND PHARMACEUTICAL COMPOSITIONS COMPRISING THE SAME” (YUHAN CORPORATION, priority 2021, published 2024)
Where two headings read alike, the source gives them in different places.

Key:
[1] = target: glucosylceramide synthase (GCS) (Homo sapiens (Human), UniProt Q16739); assay: Evaluation of inhibitory activities against GCS (A549 cell lysate, NBD C6-ceramide, HPLC); type: biochemical
Protocol: The inhibitory activities of the compounds of the present invention against GCS were evaluated, as follows, according to the method described in the known literature (Hayashi Y et al., A sensitive and reproducible assay to measure the activity of glucosylceramide synthase and lactosylceramide synthase using HPLC and fluorescent substrates, Analytical Biochemistry 345 (2005) 181-186). Ibiglustat, known as a GCS inhibitor, was used as a control.
After the cells attached to the culture dish were washed with phosphate buffered saline (PBS), the cells were scraped off with a cell scraper and then centrifuged (4000 rpm, 3 min, 4 °C) to collect the cells in a 50 ml tube. The cell pellets were suspended in a lysis buffer (50 mM HEPES, pH 7.3, containing 1× the protease/phosphatase inhibitor cocktail), lysed by sonication, and then the lysate was centrifuged (13000 rpm, 10 min, 4° C.). The obtained supernatant was used for the quantitative analysis of proteins. The amount of proteins was measured using the BCA protein assay kit, using bovine serum albumin as a standard.
Enzymatic reactions were initiated by sequentially adding the following reaction materials to a 96 deep-well plate. Thereafter, the enzymatic reactions were performed at 37° C. for 90 minutes.
The enzymatic reactions were stopped by adding 100 μl of chloroform/methanol (2:1, v/v). […] The lower layer (50 μl) was transferred to a new 96 deep-well plate and dried with a reduced concentrator.
Lipids were dissolved in 100 μl of isopropyl alcohol/n-hexane/H2O (55:44:1, v/v/v) and then transferred to a glass vial for HPLC (Agilent, 8004-HP-H/i3u). The sample (100 μl) was automatically loaded onto a normal-phase column (Intersil SIL 150A-5, 4.6×250 mm, GL Sciences, Japan) and then eluted at a flow rate of 2.0 ml/min with isopropyl alcohol/n-hexane/H2O (55:44:1, v/v/v). The fluorescence thereof was measured with a fluorescence detector (Agilent, 1260 FLD Spectra), using 470 nm and 530 nm as excitation and emission wavelengths, respectively.
Data analysis was performed by the following equations.
% Area (Sample)=Area (GlcCer)/[Area (Cer)+Area (GlcCer)]×100%
GCS activity=[Area (Sample)−Area (ibiglustat)]/[Area (DMSO)−Area (ibiglustat)]×100
The obtained % GCS activity data was analyzed with the software GraphPad Prism (Ver 5.01) to calculate the IC50 values.

[2] = tested on: GM1 production in Jurkat cells; assay: cells; type: cell-based
[3] = % GCS activity, A549 cell lysate, 37° C. for 90 minutes, read-out: IC50

Sequence of glucosylceramide synthase (GCS) (Q16739 whole entry): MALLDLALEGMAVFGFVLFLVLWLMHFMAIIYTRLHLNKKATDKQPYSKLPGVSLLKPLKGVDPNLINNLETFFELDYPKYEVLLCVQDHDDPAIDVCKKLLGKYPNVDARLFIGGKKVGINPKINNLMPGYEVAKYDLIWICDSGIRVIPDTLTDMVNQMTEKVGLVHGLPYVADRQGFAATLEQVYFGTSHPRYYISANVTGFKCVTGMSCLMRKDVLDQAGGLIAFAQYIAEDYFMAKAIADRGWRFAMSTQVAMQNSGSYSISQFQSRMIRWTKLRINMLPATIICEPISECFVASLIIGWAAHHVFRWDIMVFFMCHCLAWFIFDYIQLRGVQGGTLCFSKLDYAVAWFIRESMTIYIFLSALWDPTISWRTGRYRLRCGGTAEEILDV

Row | Compound | IC50 [1] | IC50 ([2]; Homo sapiens, Jurkat, 72 h) | IC50 [1, 3] | IC50 ([2]; read-out: IC50)
1 | CCOc1cc2c(cc1-c1ccc(OCC(C)C)cc1)CC(C)(C)[C@H]2NC(=O)O[C@@H]1CN2CCC1CC2 [Example 136, (S)-quinuclidin-3-yl((R)-6-ethoxy-5-(4-isobutoxyphenyl)-2,2-dimethyl-2,3-dihydro-1H-inden-1-yl)carbamate] | 0.41 nM | 0.87 nM |  | 
2 | CCCCOc1ccc(-c2cc3c(cc2OCC)[C@H](NC(=O)O[C@@H]2CN4CCC2CC4)C(C)(C)C3)cc1 [Example 135, (S)-quinuclidin-3-yl((R)-5-(4-butoxyphenyl)-6-ethoxy-2,2-dimethyl-2,3-dihydro-1H-inden-1-yl)carbamate] | 0.51 nM | 1.46 nM |  | 
3 | CC(C)COc1ccc(-c2cc3c(cc2F)[C@H](NC(=O)O[C@@H]2CN4CCC2CC4)C(C)(C)CC3)cc1 [Example 179, (S)-quinuclidin-3-yl((R)-7-fluoro-6-(4-isobutoxyphenyl)-2,2-dimethyl-1,2,3,4-tetrahydronaphthalen-1-yl)carbamate] | 0.19 nM | 0.22 nM |  | 
4 | Cc1cc(-c2ccc3c(c2)CCC(C)(C)[C@H]3NC(=O)O[C@@H]2CN3CCC2CC3)cc(C)c1OC(C)C [Example 149, (S)-quinuclidin-3-yl((R)-6-(4-isopropoxy-3,5-dimethylphenyl)-2,2-dimethyl-1,2,3,4-tetrahydronaphthalen-1-yl) carbamate] |  |  | 1.77 nM | 14.6 nM
5 | CCOc1cc2c(cc1-c1ccc(CC(C)C)cc1)CC(C)(C)[C@H]2NC(=O)O[C@@H]1CN2CCC1CC2 [Example 131, (S)-quinuclidin-3-yl((R)-6-ethoxy-5-(4-isobutylphenyl)-2,2-dimethyl-2,3-dihydro-1H-inden-1-yl)carbamate] | 2.01 nM | 6.47 nM |  | 
6 | CC(C)Cc1ccc(-c2cc3c(cc2F)[C@H](NC(=O)O[C@@H]2CN4CCC2CC4)C(C)(C)CC3)cc1 [Example 174, (S)-quinuclidin-3-yl((R)-7-fluoro-6-(4-isobutylphenyl)-2,2-dimethyl-1,2,3,4-tetrahydronaphthalen-1-yl)carbamate] | 0.35 nM | 0.9 nM |  | 
7 | CCCOc1ccc(-c2cc3c(cc2F)[C@H](NC(=O)O[C@@H]2CN4CCC2CC4)C(C)(C)C3)cc1F [Example 91, (S)-quinuclidin-3-yl((R)-6-fluoro-5-(3-fluoro-4-propoxyphenyl)-2,2-dimethyl-2,3-dihydro-1H-inden-1-yl)carbamate] | 0.329 nM | 10.7 nM |  | 
8 | CCOc1ccc(-c2ccc3c(c2)CC(C)(C)[C@H]3NC(=O)O[C@@H]2CN3CCC2CC3)cc1C [Example 46, (S)-quinuclidin-3-yl((R)-5-(4-ethoxy-3-methylphenyl)-2,2-dimethyl-2,3-dihydro-1H-inden-1-yl)carbamate] | 2.19 nM | 11.6 nM |  | 
9 | CC(C)COc1cc(F)cc(-c2cc3c(cc2F)[C@H](NC(=O)O[C@@H]2CN4CCC2CC4)C(C)(C)C3)c1 [Example 109, (S)-quinuclidin-3-yl((R)-6-fluoro-5-(3-fluoro-5-isobutoxyphenyl)-2,2-dimethyl-2,3-dihydro-1H-inden-1-yl)carbamate] | 0.69 nM | 11.5 nM |  | 
10 | COc1c(C)cc(-c2ccc3c(c2)CCC(C)(C)[C@H]3NC(=O)O[C@@H]2CN3CCC2CC3)cc1C [Example 147, (S)-quinuclidin-3-yl((R)-6-(4-methoxy-3,5-dimethylphenyl)-2,2-dimethyl-1,2,3,4-tetrahydronaphthalen-1-yl) carbamate] |  |  | 1.18 nM | 9.4 nM
11 | CCOc1cccc(-c2cc3c(cc2F)[C@H](NC(=O)O[C@@H]2CN4CCC2CC4)C(C)(C)CC3)c1 [Example 185, (S)-quinuclidin-3-yl((R)-6-(3-ethoxyphenyl)-7-fluoro-2,2-dimethyl-1,2,3,4-tetrahydronaphthalen-1-yl)carbamate] | 0.3 nM | 3.6 nM |  | 
12 | CC(C)Oc1cc(F)cc(-c2ccc3c(c2)CC(C)(C)[C@H]3NC(=O)O[C@@H]2CN3CCC2CC3)c1 [Example 49, (S)-quinuclidin-3-yl((R)-5-(3-fluoro-5-isopropoxyphenyl)-2,2-dimethyl-2,3-dihydro-1H-inden-1-yl)carbamate] | 0.58 nM | 9.4 nM |  | 
13 | CC(C)Oc1cc(-c2cc3c(cc2F)[C@H](NC(=O)O[C@@H]2CN4CCC2CC4)C(C)(C)C3)ccc1Cl [Example 111, (S)-quinuclidin-3-yl((R)-5-(4-chloro-3-isopropoxyphenyl)-6-fluoro-2,2-dimethyl-2,3-dihydro-1H-inden-1-yl)carbamate] | 7.13 nM | 76.2 nM |  | 
14 | CC(C)c1ccc(-c2ccc3c(c2)CCC(C)(C)[C@H]3NC(=O)O[C@@H]2CN3CCC2CC3)cc1 [Example 141, (S)-quinuclidin-3-yl((R)-6-(4-isopropylphenyl)-2,2-dimethyl-1,2,3,4-tetrahydronaphthalen-1-yl)carbamate] | 0.43 nM | 2.77 nM |  | 
15 | CC(C)Oc1cc(-c2ccc3c(c2)CC(C)(C)[C@H]3NC(=O)O[C@@H]2CN3CCC2CC3)ccc1Cl [Example 52, (S)-quinuclidin-3-yl((R)-5-(4-chloro-3-isopropoxyphenyl)-2,2-dimethyl-2,3-dihydro-1H-inden-1-yl)carbamate] | 8.27 nM | 36.7 nM |  | 
16 | CCCc1cccc(-c2cc3c(cc2F)[C@H](NC(=O)O[C@@H]2CN4CCC2CC4)C(C)(C)CC3)c1 [Example 188, (S)-quinuclidin-3-yl((R)-7-fluoro-2,2-dimethyl-6-(3-propylphenyl)-1,2,3,4-tetrahydronaphthalen-1-yl)carbamate] | 0.84 nM | 2.7 nM |  | 
17 | CC(C)Oc1cccc(-c2cc3c(cc2F)[C@H](NC(=O)O[C@@H]2CN4CCC2CC4)C(C)(C)CC3)c1 [Example 196, (S)-quinuclidin-3-yl((R)-7-fluoro-6-(3-isopropoxyphenyl)-2,2-dimethyl-1,2,3,4-tetrahydronaphthalen-1-yl)carbamate] | 0.43 nM | 6 nM |  | 
18 | CCOc1ccc(-c2cc3c(cc2C)[C@H](NC(=O)O[C@@H]2CN4CCC2CC4)C(C)(C)C3)cc1 [Example 120, (S)-quinuclidin-3-yl((R)-5-(4-ethoxyphenyl)-2,2,6-trimethyl-2,3-dihydro-1H-inden-1-yl)carbamate] | 0.31 nM | 7.66 nM |  | 
19 | CC(C)COc1cccc(-c2cc3c(cc2F)[C@H](NC(=O)O[C@@H]2CN4CCC2CC4)C(C)(C)CC3)c1 [Example 191, (S)-quinuclidin-3-yl((R)-7-fluoro-6-(3-isobutoxyphenyl)-2,2-dimethyl-1,2,3,4-tetrahydronaphthalen-1-yl) carbamate] |  |  | 0.62 nM | 2.28 nM
20 | CCCCc1ccc(-c2cc3c(cc2C)[C@H](NC(=O)O[C@@H]2CN4CCC2CC4)C(C)(C)C3)cc1 [Example 118, (S)-quinuclidin-3-yl((R)-5-(4-butylphenyl)-2,2,6-trimethyl-2,3-dihydro-1H-inden-1-yl)carbamate] | 0.2 nM | 1.55 nM |  | 
21 | (S)-quinuclidin-3-yl((R)-7-fluoro-6-(4-methoxyphenyl)-2,2-dimethyl-1,2,3,4-tetrahydronaphthalen-1-yl) carbamate [Example 175] |  |  | 0.28 nM | 3.8 nM
22 | CC(C)(C)Oc1ccc(-c2ccc3c(c2)CC(C)(C)[C@H]3NC(=O)O[C@@H]2CN3CCC2CC3)cc1 [Example 41, (S)-quinuclidin-3-yl((R)-5-(4-(tert-butoxy)phenyl)-2,2-dimethyl-2,3-dihydro-1H-inden-1-yl)carbamate] | 0.9 nM | 13.6 nM |  | 
23 | Cc1cc2c(cc1-c1ccc(CC(C)C)cc1)CC(C)(C)[C@H]2NC(=O)O[C@@H]1CN2CCC1CC2 [Example 119, (S)-quinuclidin-3-yl((R)-5-(4-isobutylphenyl)-2,2,6-trimethyl-2,3-dihydro-1H-inden-1-yl)carbamate] | 0.23 nM | 4.95 nM |  | 
24 | CCCc1ccc(-c2ccc3c(c2)CCC(C)(C)[C@H]3NC(=O)O[C@@H]2CN3CCC2CC3)cc1 [Example 140, (S)-quinuclidin-3-yl((R)-2,2-dimethyl-6-(4-propylphenyl)-1,2,3,4-tetrahydronaphthalen-1-yl)carbamate] | 0.29 nM | 2.5 nM |  | 
25 | Cc1cc2c(cc1-c1ccc(C(C)C)cc1)CC(C)(C)[C@H]2NC(=O)O[C@@H]1CN2CCC1CC2 [Example 117, (S)-quinuclidin-3-yl((R)-5-(4-isopropylphenyl)-2,2,6-trimethyl-2,3-dihydro-1H-inden-1-yl)carbamate] | 0.47 nM | 4.42 nM |  | 
